Source: patent publication US9669000B2, “Pharmaceutical compositions comprising lignans and their derivatives for treating hyperplastic diseases” (Universität Innsbruck, priority 2008, dated 2017)
Where two headings read alike, the source gives them in different places.

How the values were obtained:
[1] = system: intimal hyperplasia after balloon injury; conditions: in vivo; cited from earlier work
[2] = system: VCAM-1; conditions: ECs; cited from earlier work
[3] = system: SMCs; conditions: caspase-dependent manner; cited from earlier work
[4] = system: primary human vascular endothelial cells (ECs); experiment: Metabolic protein labelling with 35S-methionine/cysteine in ECs; format: cell-based
Experimental: (§1) Primary human vascular endothelial cells (ECs) were incubated with the indicated concentrations of leoligin for the indicated times. […] Values shown are mean values from a representative experiment performed in triplicates. […] Values shown are mean values from three independent experiments+/−S.D. The impact of leoligin on TNFalpha-induced surface expression of VCAM-1, ICAM-1, and E-selectin (E-Sel) is shown in the three diagrams in FIG. 4C. Data shown are mean fluorescence intensities (MFI) of representative experiments. […] After protein preparation, total cellular proteins were separated on polyacrylamide gels, gel were dried and analysed by exposure to x-ray films.
Metabolic labelling with ^35S-methionine/cysteine was performed as previously described (Bernhard (2001), loc. cit.).

[5] = system: human vascular smooth muscle cells (SMCs); experiment: XTT cell proliferation assay, smooth muscle cells; format: cell-based; conditions: for IC50: XTT assay after 72 h, mean of three independent experiments, read-out: IC50, SMC proliferation-inhibitory activity
Excerpt: Human umbilical vein endothelial cells (HUVECs) were isolated from umbilical cords (kindly donated by the Gynecology and Obstetrics Department, Innsbruck Medical University) by enzymatic detachment using collagenase, as previously described; see Bernhard, FASEB J 17(15), 2302-4 (2003). Human umbilical vein smooth muscle cells (SMCs) were isolated from the same umbilical cords according to Chamley-Campbell, Physiol Rev 59(1), 1-61 (1979). SMCs were routinely passaged in 0.2% gelatine-coated (Sigma, Steinheim, Germany) polystyrene culture flasks (Becton Dickinson, Meylan Cedex, France) in Medium 231 (Cascade Biologics, Paisley, UK). The isolation and analysis of human umbilical cord ECs and SMCs has been approved by the Ethics Committee of the Innsbruck Medical University.
(§2) Cell proliferation was measured by the XTT cell proliferation assay (Biomol, Hamburg, Germany) as described by the manufacturer. The XTT assay is based on the ability of metabolic active cells to reduce the tetrazolium salt XTT to orange coloured compounds of formazan. The dye formed is water soluble and the dye intensity can be read at a given wavelength with a spectrophotometer. The intensity of the dye is proportional to the number of metabolic active cells. In addition to the XTT assay all proliferation-experiments were also evaluated by counting cells in a coulter counter.
as §2, with “As described above (Example 1) cell” for “Cell”, “cells.” for “cells. In addition to the XTT assay all proliferation-experiments were also evaluated by counting cells in a coulter counter.”

[6] = system: primary human vascular endothelial cells (ECs); experiment: XTT cell proliferation assay, endothelial cells; format: cell-based
Excerpt: (§3) Values shown are mean values from a representative experiment performed in triplicates.

[7] = system: p27/KIP; experiment: Western blot of p27/KIP in SMCs; format: cell-based, human; conditions: SMCs incubated 24 hours; shift from 27 kD to 58 kD signal
Experimental: (§4) In order to investigate the effect of leoligin on the cellular level, isolated primary human vascular smooth muscle cells (SMCs) were incubated with the indicated concentrations of leoligin for the indicated times. […] Values shown are mean values from a representative experiment performed in triplicates. […] Values shown are mean values from three independent experiments+/−S.D. The histogram blots in FIG. 3C show the results from a DNA content analysis of control-treated or leoligin-treated SMCs after 24 hours of incubation (upper row, left histogram . . . solvent control; upper row, right histogram . . . leoligin).
Western blotting was performed as previously described; see Bernhard, Cell Death Differ 8(10), 1014-21 (2001). Primary antibodies used were anti-p27/KIP-1 antibody (clone 57; BD Transduction Laboratories).

[8] = system: human vascular smooth muscle cells (SMCs); experiment: Nuclear DNA content (cell cycle) analysis, SMCs; format: cell-based; conditions: 24 hours of incubation
Experimental: In order to investigate the effect of leoligin on the cellular level, isolated primary human vascular smooth muscle cells (SMCs) were incubated with the indicated concentrations of leoligin for the indicated times. […] Values shown are mean values from a representative experiment performed in triplicates.
(§5) For detection and/or quantification of cell death, forward/sideward light scattering analysis, the AnnexinV-propidium iodide method, and staining of nuclear DNA content (cell cycle analyses) were used as described; see Bernhard FASEB J 13(14), 1991-2001 (1999).

[9] = system: human saphenous veins; experiment: Human saphenous vein organ culture model of intimal hyperplasia; conditions: added freshly every second day over 2 weeks
Experimental: (§6) Following fixation in 4% paraformaldehyde and dehydration of tissues from organ culture and mouse experimentation, tissues were embedded in paraffin (venae cavae from the in vivo experiments were embedded into mouse liver prior to fixation) and sections were prepared. Immunohistochemistry was performed with the Accustain Elastica Stain (HT25) kit (Sigma-Aldrich, USA) or the En Vision+System-HRP (DAB) (DakoCytomation, Denmark) according to the manufacturers instructions. Primary antibodies used were anti-p27/KIP-1 antibody (clone 57; BD Transduction Laboratories), and anti-CD31/PECAM-1 antibody (clone JC70A, Dako Cytomation). Image analyses were performed using the Image J software of the National Institute of Health (USA).

[10] = system: VCAM-1; experiment: FACS analysis of TNFalpha-induced surface adhesion molecule expression on ECs; format: cell-based, human
Excerpt: as §3

[11] = system: human vascular smooth muscle cells (SMCs); experiment: Cell death by AnnexinV-propidium iodide method and FACS, SMCs; format: cell-based; conditions: after 48 hour
Experimental: as §4, §5

[12] = system: primary human vascular endothelial cells (ECs); experiment: Cell viability by annexin V/propidium iodide method and FACS, ECs; format: cell-based; conditions: 48 hours
Experimental: as §1, §5

[13] = system: venous bypass graft intimal hyperplasia; experiment: Mouse model for vein graft disease (vena cava interposed into carotid artery); format: in vivo
Experimental: Before wound closure after the transplantation, a peradventitial depot of 100 μl of 0.9% NaCl (control) or 100 μl of 100 μM leoligin in 0.9% NaCl were applied. After 4 weeks conduits were removed and subjected to morphometric analyses and to immunohistochemistry. FIG. 5B: the upper two images show a Elastica van Giesson stain of sections of the venous conduits. White arrows indicate neointimal thickness which was analysed by morphometry (see FIG. 5A). Central images display a staining for the endothelial cell CD31/PECAM-1 antigen (brown, black arrows) combined with a hematoxilin stain. […] The abbreviations “Lu” and “Li” stand for the full terms “lumen” and “liver”, respectively.
In the applied mouse model the vena cava of a donor mouse was interposed into the carotid artery of a recipient mouse. After transplantation and prior to wound closure a 100 μl depot of 0.9% NaCl (control group) or 100 μM leoligin in 0.9% NaCl (leoligin group) was placed around the adventitia of the vein graft in the recipient mouse. 4 weeks after the intervention mice were sacrificed and the interposed venae cavae were harvested for analyses. […] For details on the surgical procedure see Schachner, Eur J Cardiothorac Surg 30(3), 451-63 (2006); Schachner, Heart Surg Forum 9(1), E515-E517 (2006). Animal experiments were approved by the Commission for Animal Testing Affairs of the Austrian Ministry for Science and Research.
as §6

[14] = system: SMCs; conditions: associated with upregulation of p21/WAF1; cited from earlier work
[15] = 100 μl of 100 μM leoligin, 4 weeks

COc1cc([C@@H]2c3cc4c(cc3[C@H](O)[C@H]3COC(=O)[C@@H]23)OCO4)cc(OC)c1OC [picropodophyllin]
intimal hyperplasia after balloon injury [1]: inhibits intimal hyperplasia after balloon injury in vivo

C=CCc1ccc(O)c(-c2cc(CC=C)ccc2O)c1 [Magnolol, magnolol]
TNFalpha-mediated VCAM-1 expression [2]: inhibit TNFalpha-mediated VCAM-1 expression | cell death in SMCs [3]: induce cell death in SMCs

C/C=C(/C)C(=O)OC[C@H]1[C@@H](Cc2ccc(OC)c(OC)c2)CO[C@@H]1c1ccc(OC)c(OC)c1 [leoligin]
protein synthesis in ECs [4]: does not block protein synthesis | IC50 ([5]; Homo sapiens): 54.5 µM | SMC proliferation (XTT assay, cell counting) ([5]; result in words): significant SMC proliferation inhibitory effect | proliferation of ECs [6]: inhibited the proliferation of ECs | p27/KIP protein (Western blot) [7]: complete change in the appearance of p27/KIP protein | cell cycle distribution (nuclear DNA content) [8]: massive accumulation of cells in the G1-phase | intimal hyperplasia of saphenous veins in organ culture ([9]; 5 μM leoligin, p=0.003): completely inhibited intimal hyperplasia | pre-existing intimal hyperplasia of saphenous veins in organ culture ([9]; 50 μM leoligin, p<0.001): even reversed pre-existing intimal hyperplasia | TNFalpha-mediated surface expression of VCAM-1 [10]: inhibited TNFalpha-mediated surface expression of VCAM-1 | cell death (apoptosis and necrosis) in SMCs [11]: only a marginal increase in cell death | toxic or cell death-inducing effect on ECs [12]: no toxic or cell death-inducing effect | endothelial layer (CD31 staining) of conduits [13, 15]: intact | neointimal thickness of vein grafts [13, 15]: significantly reduced neointimal thickness | p27/KIP staining of graft sections ([13]; four weeks after the application): stained positive for p27/KIP | animals with no blood flow due to thromboses after 4 weeks ([13]; of 7 animals per group (3 in control)): 2 | intimal hyperplasia in vivo ([13]; periadvential reservoir 100 μl of 100 μM leoligin in 0.9% NaCl, 4 weeks): potently inhibited intimal hyperplasia in vivo

C=CCc1ccc(O)c(-c2ccc(O)c(CC=C)c2)c1 [Honokiol, honokiol]
cell cycle in SMCs [14]: arrest in the G1 phase of the cell cycle

C/C=C(/C)C(=O)OC[C@H]1[C@@H](Cc2cc(OC)c(OC)c(OC)c2)CO[C@@H]1c1cc(OC)c(OC)c(OC)c1 [5,5′-dimethoxy-leoligin]
IC50 ([5]; Homo sapiens): 48.6 µM

C/C=C(/C)C(=O)OC[C@H]1[C@@H](Cc2ccc(O)c(OC)c2)CO[C@@H]1c1cc(OC)c(OC)c(OC)c1 [5-methoxy-leoligin]
IC50 ([5]; Homo sapiens): 45.9 µM

COc1cc(C[C@H]2CO[C@H](c3ccc(O)c(OC)c3)[C@H]2CO)ccc1O [lariciresinol, reference compound]
IC50 ([5]; Homo sapiens): > 100 µM

C/C=C(/C)C(=O)OC[C@H]1[C@@H](Cc2ccc(OC)c(OC)c2)CO[C@@H]1c1cc(OC)c(OC)c(OC)c1 [5-methoxy-leoligin]
IC50 [5]: 45.9 µM
